Source: EP3265461B1, “VERBASCOSIDE DERIVATIVES” (Croda Italiana S.p.A., priority 2015, dated 2016)

Legend:
[1] = Stability in fed intestinal fluid (FESSIF), HPLC; assay type: in vitro ADME; settings: fed-state simulated intestinal fluid (FESSIF), pH=5, read-out: FESSIF t1/2
Experimental: (§1) The stability of the compounds of formula (I) was measured under physiological conditions.
(§2) The stability measurement was conducted by means of analytic HPLC techniques with a UV detector at 330 nm. The half-life is reported (in hours).

[2] = Metabolism in human liver; assay type: in vitro ADME
Description: Moreover, it has also been determined that the derivatives (B), (C) and (D) are metabolized in human liver, whereas verbascoside (derivative (A)) is stable.

[3] = test system: platelet aggregation (PA); assay: Phase II study: ADP-induced platelet aggregation by light transmission aggregometry; assay type: in vivo, human; settings: platelets stimulated with 5 µM ADP
Experimental: (§3) A randomized, double-blind Phase II study was conducted to evaluate verbascoside activity in modulating the platelet aggregation (PA) values on subjects with at least one cardiovascular risk factor, selected from: age over 65 years, diabetes mellitus, hypertension, smoke, hyperlipidemia, waist circumference greater than 102 cm in men or 88 cm in women. Patients under pharmacological treatment with platelet antiaggregants (aspirin, clopidogrel, ticlopidine, prasugrel, ticagrelor), with anticoagulants (e.g. warfarin) or with oral contraceptives, were excluded. Other exclusion criteria were: events of myocardial infarction, coronary revascularization (percutaneous or surgical), infarction, temporary ischemic attack, peripheral vascular pathology, and the consumption of corticosteroids and/or non-steroidal anti-inflammatory drugs in the last month.
(§4) The experimentation was conducted on 100 subjects. […]
(§5) PA was determined by means of light transmission aggregometry according to standard protocols. […] The aggregation was measured at 37°C with a PACKS-4 aggregometer (Helena Laboratories). The curves were recorded for 6 min. The aggregation was measured at a maximum aggregation (maximum PA) and at 5 min (delayed PA). […]

[4] = Oxidation stability as antioxidant power against the DPPH radical; assay type: physicochemical; settings: 100 µM DPPH in methanol, 15 min in the dark at room temperature, 515 nm
Experimental: The oxidation stability of the compounds of formula (I) was evaluated as a function of their antioxidant power, determined as the reactivity of the compound against the stable radical 2,2-diphenyl-1-picrylhydrazyl (DPPH) in solution. High reactivity means poor stability under oxidizing conditions.
A 100 µM solution of DPPH in methanol, prepared from a 1 mM solution, then diluted at 1:10 was used for the determination.
The following final dilutions (from a solution in methanol having a double concentration) of the compound of formula (I) to be analyzed were prepared: 500 µg/mL, 100 µg/mL, 50 µg/mL, 10 µg/mL, 5 µg/mL, 2.5 µg/mL, 1 µg/mL, 0.5 µg/mL, 0.1 µg/mL, 0.05 µg/mL, 0 µg/mL.
500 µl of the compound to be tested at a certain concentration and 500 µl of DPPH were placed in a cuvette, they were all mixed and incubated in the dark at room temperature for 15 min.
The solution was analyzed with a spectrophotometer at a wavelength of 515 nm (methanol as white).
The color in the cuvettes varies from violet (DPPH without compound of formula (I)) to straw-yellow (DPPH with maximum inhibitory concentration of the compound of formula (I)).
The percent inhibition of the radical reaction is defined as: [(Absmax(DPPHalone)−Abs(DPPH+compound))/Absmax] × 100. [formula] […]

[5] = Stability in gastric fluids (SGF), HPLC; assay type: in vitro ADME; settings: pH=1.6
Experimental: as §1, §2

[6] = test system: platelet aggregation (PA); assay: Phase II study: arachidonic acid-induced platelet aggregation by light transmission aggregometry; assay type: in vivo, human; settings: platelets stimulated with 1 µM AA
Experimental: as §3, §4, §5

Stability in blood, HPLC = assay type: in vitro ADME
Experimental: as §1, §2

[7] = Stability in fasted intestinal fluid (FASSIF), HPLC; assay type: in vitro ADME; settings: pH=6.5
Experimental: as §1, §2

## C[C@@H]1O[C@@H](O[C@@H]2[C@@H](O)[C@H](OCCc3ccc(O)c(O)c3)O[C@H](CO)[C@H]2OC(=O)/C=C/c2ccc(O)c(O)c2)[C@H](O)[C@H](O)[C@H]1O [(A), Verbascoside]
[1]
  half-life: > 1440 min
[2]
  metabolized in human liver: stable
[3]; after 2 weeks of 50 mg/day, time 0 value 58±8%, p=0.5
  ADP-induced maximum PA: 56±9%
[3]; after 2 weeks of 100 mg/day, time 0 value 60±12%, p<0.01
  ADP-induced maximum PA: 49±15%
[4]
  Inhibitory activity (IC50): 2 µg/mL
[5]
  SGF t1/2: STABLE
[6]; after 2 weeks of 50 mg/day, time 0 value 50±9%, p=0.4
  Arachidonic acid-induced maximum PA: 48±10%
[6]; after 2 weeks of 100 mg/day, time 0 value 51±13%, p<0.01
  Arachidonic acid-induced maximum PA: 39±15%
Stability in blood, HPLC
  Blood t1/2: stable
[7]
  FASSIF t1/2: stable
